According to patent publication EP4810040A2, “INHIBITORS OF APOL1 AND METHODS OF USING SAME” (priority 2020, dated 2022):

Experiments:
APOL1 G1 [1] = target: T1, APOL1 G1 (Homo sapiens, UniProt O14791, I384M/S342G); test: MultiTox-Fluor Multiplex Cytotoxicity Assay, tet-inducible APOL1 G1 T-REx-HEK293 cells; assay type: cell-based; set-up: expressed in transfected cells; host or cells: T-REx HEK293, clone G1 DC3.25 (pAAVS1-Puro-APOL1 G1); settings: Multi-Tox Assay; for IC50: IP50 = IC50 for cell proliferation, APOL1 variant not given; for IC90: APOL1 variant (G0/G1/G2) of the HEK293 cells not given, read-out: Multi-Tox Assay IC90
T1 sequence (O14791 28-398 S342G/I384M): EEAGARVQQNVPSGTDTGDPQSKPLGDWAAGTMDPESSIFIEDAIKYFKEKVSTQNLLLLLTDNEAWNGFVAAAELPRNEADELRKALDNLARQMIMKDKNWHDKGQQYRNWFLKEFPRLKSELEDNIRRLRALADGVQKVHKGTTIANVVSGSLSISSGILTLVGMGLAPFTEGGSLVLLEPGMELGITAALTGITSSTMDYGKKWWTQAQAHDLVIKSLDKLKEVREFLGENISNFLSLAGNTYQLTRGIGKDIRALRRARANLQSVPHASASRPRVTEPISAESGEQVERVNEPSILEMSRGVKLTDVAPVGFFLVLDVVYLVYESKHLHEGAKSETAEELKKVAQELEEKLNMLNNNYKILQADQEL
Summary of the method: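 Over 24 h at 37 °C, compounds (10-point 3-fold series from 10 µM, duplicate) were co-incubated with 50 ng/mL tetracycline inducing APOL1 G1 in T-REx-HEK293 cells. Viability/cytotoxicity measured by MultiTox-Fluor as dead-to-live fluorescence ratio, expressed as percent of control between uninduced and induced wells and fitted.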

APOL1 G1 [2] = target: T1, APOL1 G1; test: Trypanosoma brucei brucei Lysis Assay Using APOL1 Recombinant Protein (AlamarBlue viability readout); assay type: cell-based; settings: IP50 = IC50 for cell proliferation; Trypanosome Assay
Description: Trypanosoma brucei brucei is a blood stream parasite to which human, gorillas, and baboons are immune due to the presence of the APOL1 protein in their HDL particles. The protein is uptaken by the parasite via the TbHpHb receptor located in its flagellar pocket and is bonded by the Hpr protein contained in the HDL particles which triggers the receptor endocytosis by the parasite.
Following endocytosis, the formed vesicle containing the HDL particle matures from early to late endosome, and subsequently to lysosome. The concomitant pH change in the lumen of the vesicle triggers the insertion of the APOL1 protein into the membrane of the late endosome/lysosome and hereby triggers lysosomal membrane permeabilization and as a further downstream event, trypanosome lysis. Trypanosoma brucei brucei is sensitive to lysis by all three APOL1 variants (G0, G1, and G2).
The Trypanosoma brucei brucei lysis assay is a lysis assay of the parasite using recombinant APOL1 protein variant followed by a fluorescent detection method of viability by the addition of AlamarBlue reagent to the assay well, a general metabolic redox indicator (AlamarBlue assay).
Briefly, the AlamarBlue active compound, resazurin, a blue, water soluble, non-toxic and cell permeable molecule, which can be followed by absorbance, is reduced by various metabolic pathways into resorufin, a red compound which can be followed by either absorbance or fluorescence. The assay allows the calculation of the percent viability (percent of living Trypanosomes remaining in each well) at the end of a lysis relative to the untreated condition by interpolation of fluorescent values (FLU) on a standard curve with a known amount of seeded trypanosome/well.
Trypanosoma brucei brucei (ATCC, Cat. No. PRA-382) • o Lister 427 VSG 221 bloodstream form.
Assay Ready Plates (ARPs) ∘ ARPs comes in two formats: • […] final top concentration with a 2.5 fold dilution down. • 5 mM final top concentration with a 3 fold dilution down. • ▪ Both have a 10 point Dose response. • ▪ 0.1% DMSO final in the Black Assay Plate. • ▪ Compounds are diluted 1000 fold in the Black Assay Plate. • ▪ Each plate is designed for 14 compounds in duplicate. ∘ In the final Black Assay Plate: […]

| Substance | IC50 (APOL1 G1 [1]) [nM] | IC90 (APOL1 G1 [1]) [nM] | IC50 (APOL1 G1 [2]) [nM] |
| --- | --- | --- | --- |
| 2-chloro-2'-ethyl-6'-(1-methyltriazol-4-yl)spiro[4,5-dihydrothieno[2,3-c]pyran-7,4'-piperidine] [Compound 186] | < 50 | 50 to 500 | 50 to 500 |
| (2S)-2-chloro-2'-methyl-6'-(1-methylpyrazol-4-yl)spiro[4,5-dihydrothieno[2,3-c]pyran-7,4'-piperidine]-4-ol [Compound 175] | < 50 | < 50 | < 50 |
| (2S,6S)-2-chloro-2'-cyclopropyl-6'-methyl-spiro[4,5-dihydrothieno[2,3-c]pyran-7,4'-piperidine] [Compound 211] | < 50 | 50 to 500 | 50 to 500 |
| 2'-ethyl-6'-(1-methyltriazol-4-yl)-2-(trifluoromethyl)spiro[4,5-dihydrothieno[2,3-c]pyran-7,4'-piperidine] [Compound 187] | < 50 | < 50 | 50 to 500 |
